Reference: ChEMBL document CHEMBL1201862, “PubChem BioAssay data set” (2004)
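Following 48 hours of exposure in 96-well plates, responses at five concentrations were used to interpolate endpoints linearly. The concentration for 50% growth inhibition is given as GI50.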 The source made the active and inactive calls. Rule as the data show it: active = GI50 up to about 1.1 µM and inactive = higher.

Tests used:
Assay in all cases: inhibition of tumour cell growth, NCI panel, 48 h
A498 = tested on: A498
RXF 393 = tested on: RXF 393
A549 = tested on: A549
SN12C = tested on: SN12C
KM12 = tested on: KM12
HCT-15 = tested on: HCT-15
HCC 2998 = tested on: HCC 2998
NCI-H226 = tested on: NCI-H226
HCT-116 = tested on: HCT-116
HOP-92 = tested on: HOP-92
SK-OV-3 = tested on: SK-OV-3
NCI-H460 = tested on: NCI-H460
SNB-19 = tested on: SNB-19
MDA-MB-435 = tested on: MDA-MB-435
T47D = tested on: T47D
SF-268 = tested on: SF-268
LOX IMVI = tested on: LOX IMVI
UACC-62 = tested on: UACC-62
COLO 205 = tested on: COLO 205
SR = tested on: SR
U-251 = tested on: U-251
SK-MEL-28 = tested on: SK-MEL-28
OVCAR-3 = tested on: OVCAR-3
DU-145 = tested on: DU-145
SF-295 = tested on: SF-295
SK-MEL-5 = tested on: SK-MEL-5
OVCAR-5 = tested on: OVCAR-5
UACC-257 = tested on: UACC-257
OVCAR-4 = tested on: OVCAR-4
786-0 = tested on: 786-0
ACHN = tested on: ACHN
MDA-N = tested on: MDA-N
NCI-H522 = tested on: NCI-H522
Hs-578T = tested on: Hs-578T
Malme-3M = tested on: Malme-3M
MCF7 = tested on: MCF7
CCRF-CEM = tested on: CCRF-CEM
M14 = tested on: M14
CAKI-1 = tested on: CAKI-1
EKVX = tested on: EKVX
UO-31 = tested on: UO-31
BT-549 = tested on: BT-549
IGROV-1 = tested on: IGROV-1
PC-3 = tested on: PC-3
MDA-MB-231 = tested on: MDA-MB-231
RPMI-8226 = tested on: RPMI-8226
OVCAR-8 = tested on: OVCAR-8
TK-10 = tested on: TK-10
SNB-75 = tested on: SNB-75
NCI/ADR-RES = tested on: NCI/ADR-RES
HT-29 = tested on: HT-29
SK-MEL-2 = tested on: SK-MEL-2
HL-60 = tested on: HL-60
NCI-H23 = tested on: NCI-H23
HOP-62 = tested on: HOP-62
K562 = tested on: K562
SW-620 = tested on: SW-620
MOLT-4 = tested on: MOLT-4

## c1ccc(-c2nnn(CCN3CCCCC3)n2)cc1
A498
  GI50: > 100 µM (inactive)
RXF 393
  GI50: > 100 µM (inactive)
A549
  GI50: > 100 µM (inactive)
SN12C
  GI50: > 100 µM (inactive)
KM12
  GI50: > 100 µM (inactive)
HCT-15
  GI50: > 100 µM
HCC 2998
  GI50: > 100 µM (inactive)
NCI-H226
  GI50: > 100 µM (inactive)
HCT-116
  GI50: > 100 µM (inactive)
HOP-92
  GI50: > 100 µM (inactive)
SK-OV-3
  GI50: > 100 µM (inactive)
NCI-H460
  GI50: > 100 µM (inactive)
SNB-19
  GI50: > 100 µM (inactive)
MDA-MB-435
  GI50: > 100 µM (inactive)
T47D
  GI50: > 100 µM (inactive)
SF-268
  GI50: > 100 µM (inactive)
LOX IMVI
  GI50: > 100 µM (inactive)
UACC-62
  GI50: > 100 µM (inactive)
COLO 205
  GI50: > 100 µM (inactive)
SR
  GI50: > 100 µM (inactive)
U-251
  GI50: > 100 µM (inactive)
SK-MEL-28
  GI50: > 100 µM (inactive)
OVCAR-3
  GI50: > 100 µM (inactive)
DU-145
  GI50: > 100 µM (inactive)
SF-295
  GI50: > 100 µM (inactive)
SK-MEL-5
  GI50: > 100 µM (inactive)
OVCAR-5
  GI50: > 100 µM (inactive)
UACC-257
  GI50: > 100 µM (inactive)
OVCAR-4
  GI50: > 100 µM (inactive)
786-0
  GI50: > 100 µM (inactive)
ACHN
  GI50: > 100 µM (inactive)
MDA-N
  GI50: > 100 µM (inactive)
NCI-H522
  GI50: > 100 µM (inactive)
Hs-578T
  GI50: > 100 µM (inactive)
Malme-3M
  GI50: > 100 µM (inactive)
MCF7
  GI50: > 100 µM (inactive)
CCRF-CEM
  GI50: > 100 µM (inactive)
M14
  GI50: > 100 µM (inactive)
CAKI-1
  GI50: > 100 µM (inactive)
EKVX
  GI50: 96.6 µM (inactive)
UO-31
  GI50: > 100 µM (inactive)
BT-549
  GI50: > 100 µM (inactive)
IGROV-1
  GI50: > 100 µM (inactive)
PC-3
  GI50: > 100 µM (inactive)
MDA-MB-231
  GI50: > 100 µM (inactive)
RPMI-8226
  GI50: > 100 µM (inactive)
OVCAR-8
  GI50: > 100 µM (inactive)
TK-10
  GI50: > 100 µM (inactive)
SNB-75
  GI50: > 100 µM (inactive)
NCI/ADR-RES
  GI50: > 100 µM (inactive)
HT-29
  GI50: > 100 µM (inactive)
SK-MEL-2
  GI50: > 100 µM (inactive)
HL-60
  GI50: > 100 µM (inactive)
NCI-H23
  GI50: > 100 µM (inactive)
HOP-62
  GI50: > 100 µM (inactive)
K562
  GI50: > 100 µM (inactive)
SW-620
  GI50: > 100 µM (inactive)

## Cc1ccc([N+](=O)[O-])cc1S(=O)(=O)Nc1ccc(C2=NN(S(=O)(=O)c3cc([N+](=O)[O-])ccc3C)C(c3cccs3)C2)cc1 (centres undefined)
A498
  GI50: 13.8 µM (inactive)
RXF 393
  GI50: 56.5 µM (inactive)
A549
  GI50: 32.7 µM (inactive)
SN12C
  GI50: 33.7 µM (inactive)
KM12
  GI50: 30.1 µM (inactive)
HCT-15
  GI50: 33.2 µM
HCC 2998
  GI50: 22.9 µM (inactive)
NCI-H226
  GI50: 52.7 µM (inactive)
HCT-116
  GI50: 26.5 µM (inactive)
HOP-92
  GI50: 33.7 µM (inactive)
MOLT-4
  GI50: 22.4 µM (inactive)
SK-OV-3
  GI50: 24.5 µM (inactive)
NCI-H460
  GI50: 28.2 µM (inactive)
SNB-19
  GI50: 45.2 µM (inactive)
MDA-MB-435
  GI50: 50 µM (inactive)
T47D
  GI50: 21.5 µM (inactive)
SF-268
  GI50: 28.1 µM (inactive)
LOX IMVI
  GI50: 57 µM (inactive)
UACC-62
  GI50: 15.8 µM (inactive)
COLO 205
  GI50: 9.59 µM (inactive)
SR
  GI50: 24.1 µM (inactive)
U-251
  GI50: 30.1 µM (inactive)
SK-MEL-28
  GI50: 65.8 µM (inactive)
OVCAR-3
  GI50: 19.6 µM (inactive)
DU-145
  GI50: 51.3 µM (inactive)
SF-295
  GI50: 21.2 µM (inactive)
SK-MEL-5
  GI50: 29 µM (inactive)
OVCAR-5
  GI50: 74 µM (inactive)
UACC-257
  GI50: 31.5 µM (inactive)
OVCAR-4
  GI50: 37.4 µM (inactive)
786-0
  GI50: 44.2 µM (inactive)
ACHN
  GI50: 32.4 µM (inactive)
MDA-N
  GI50: 33.7 µM (inactive)
NCI-H522
  GI50: 26.1 µM (inactive)
Hs-578T
  GI50: 12.8 µM (inactive)
Malme-3M
  GI50: 47.9 µM (inactive)
MCF7
  GI50: 10.7 µM (inactive)
M14
  GI50: 36 µM (inactive)
CAKI-1
  GI50: 44.1 µM (inactive)
EKVX
  GI50: 29 µM (inactive)
UO-31
  GI50: 34.5 µM (inactive)
BT-549
  GI50: 38.6 µM (inactive)
IGROV-1
  GI50: 46.3 µM (inactive)
PC-3
  GI50: 30 µM (inactive)
MDA-MB-231
  GI50: 24.9 µM (inactive)
RPMI-8226
  GI50: 21.9 µM (inactive)
OVCAR-8
  GI50: 50.2 µM (inactive)
TK-10
  GI50: 38.6 µM (inactive)
SNB-75
  GI50: > 100 µM (inactive)
NCI/ADR-RES
  GI50: 31.6 µM (inactive)
HT-29
  GI50: 38.4 µM (inactive)
SK-MEL-2
  GI50: 25.3 µM (inactive)
HL-60
  GI50: 32.9 µM (inactive)
NCI-H23
  GI50: 21.8 µM (inactive)
HOP-62
  GI50: 30.1 µM (inactive)
K562
  GI50: 24.2 µM (inactive)
SW-620
  GI50: 49.7 µM (inactive)
